Assay [1] addresses T1, Protein mono-ADP-ribosyltransferase PARP15 (Homo sapiens, UniProt Q460N3).
T1 sequence (Q460N3 whole entry): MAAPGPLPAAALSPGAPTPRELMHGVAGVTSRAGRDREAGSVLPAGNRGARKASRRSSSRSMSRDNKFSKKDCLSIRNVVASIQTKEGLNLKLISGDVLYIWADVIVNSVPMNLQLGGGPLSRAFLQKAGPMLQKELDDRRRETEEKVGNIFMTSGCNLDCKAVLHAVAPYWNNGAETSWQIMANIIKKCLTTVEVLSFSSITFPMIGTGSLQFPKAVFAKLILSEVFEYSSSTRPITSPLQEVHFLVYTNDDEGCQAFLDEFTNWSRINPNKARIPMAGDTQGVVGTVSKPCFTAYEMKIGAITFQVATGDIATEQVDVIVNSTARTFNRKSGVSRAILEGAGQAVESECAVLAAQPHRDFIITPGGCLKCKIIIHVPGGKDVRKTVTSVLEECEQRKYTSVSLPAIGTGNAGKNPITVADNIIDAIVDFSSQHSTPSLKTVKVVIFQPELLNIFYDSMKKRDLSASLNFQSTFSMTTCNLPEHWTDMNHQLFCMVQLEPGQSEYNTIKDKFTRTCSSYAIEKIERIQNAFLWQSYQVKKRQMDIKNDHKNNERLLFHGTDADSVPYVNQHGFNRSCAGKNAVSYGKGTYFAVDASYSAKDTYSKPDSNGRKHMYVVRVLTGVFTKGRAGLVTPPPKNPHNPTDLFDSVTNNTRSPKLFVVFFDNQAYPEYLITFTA
Kind of assay: Inhibition of human ARTD7 (460 to 656) using 250 nM NAD substrate at 10 uM after 2 hrs incubation.

For assay [2], the target named is Poly [ADP-ribose] polymerase 2 (Homo sapiens, UniProt Q9UGN5). Nature of the assay: Inhibition of full-length human ARTD2 using 500 nM NAD substrate after 3 hrs incubation.
Poly [ADP-ribose] polymerase 2, sequence (Q9UGN5 whole entry): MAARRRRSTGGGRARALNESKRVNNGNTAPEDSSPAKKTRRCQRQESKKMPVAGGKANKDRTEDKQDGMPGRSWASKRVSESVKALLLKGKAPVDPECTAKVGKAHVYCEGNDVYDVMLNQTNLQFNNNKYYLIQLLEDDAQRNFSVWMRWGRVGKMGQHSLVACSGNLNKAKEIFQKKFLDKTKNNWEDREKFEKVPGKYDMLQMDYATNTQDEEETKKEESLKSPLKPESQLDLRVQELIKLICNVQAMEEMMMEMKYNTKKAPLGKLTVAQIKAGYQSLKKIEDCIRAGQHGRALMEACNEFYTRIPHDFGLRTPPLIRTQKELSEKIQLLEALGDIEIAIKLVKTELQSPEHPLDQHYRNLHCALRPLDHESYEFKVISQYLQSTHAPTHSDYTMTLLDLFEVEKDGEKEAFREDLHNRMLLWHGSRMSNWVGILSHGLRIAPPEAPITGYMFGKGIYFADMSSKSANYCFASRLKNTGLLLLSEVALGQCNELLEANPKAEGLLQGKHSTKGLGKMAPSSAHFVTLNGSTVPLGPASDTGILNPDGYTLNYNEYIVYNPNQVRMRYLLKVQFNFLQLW
The target in assay [3] is T2, Poly [ADP-ribose] polymerase tankyrase-2 (Homo sapiens, UniProt Q9H2K2).
T2 sequence (Q9H2K2 whole entry): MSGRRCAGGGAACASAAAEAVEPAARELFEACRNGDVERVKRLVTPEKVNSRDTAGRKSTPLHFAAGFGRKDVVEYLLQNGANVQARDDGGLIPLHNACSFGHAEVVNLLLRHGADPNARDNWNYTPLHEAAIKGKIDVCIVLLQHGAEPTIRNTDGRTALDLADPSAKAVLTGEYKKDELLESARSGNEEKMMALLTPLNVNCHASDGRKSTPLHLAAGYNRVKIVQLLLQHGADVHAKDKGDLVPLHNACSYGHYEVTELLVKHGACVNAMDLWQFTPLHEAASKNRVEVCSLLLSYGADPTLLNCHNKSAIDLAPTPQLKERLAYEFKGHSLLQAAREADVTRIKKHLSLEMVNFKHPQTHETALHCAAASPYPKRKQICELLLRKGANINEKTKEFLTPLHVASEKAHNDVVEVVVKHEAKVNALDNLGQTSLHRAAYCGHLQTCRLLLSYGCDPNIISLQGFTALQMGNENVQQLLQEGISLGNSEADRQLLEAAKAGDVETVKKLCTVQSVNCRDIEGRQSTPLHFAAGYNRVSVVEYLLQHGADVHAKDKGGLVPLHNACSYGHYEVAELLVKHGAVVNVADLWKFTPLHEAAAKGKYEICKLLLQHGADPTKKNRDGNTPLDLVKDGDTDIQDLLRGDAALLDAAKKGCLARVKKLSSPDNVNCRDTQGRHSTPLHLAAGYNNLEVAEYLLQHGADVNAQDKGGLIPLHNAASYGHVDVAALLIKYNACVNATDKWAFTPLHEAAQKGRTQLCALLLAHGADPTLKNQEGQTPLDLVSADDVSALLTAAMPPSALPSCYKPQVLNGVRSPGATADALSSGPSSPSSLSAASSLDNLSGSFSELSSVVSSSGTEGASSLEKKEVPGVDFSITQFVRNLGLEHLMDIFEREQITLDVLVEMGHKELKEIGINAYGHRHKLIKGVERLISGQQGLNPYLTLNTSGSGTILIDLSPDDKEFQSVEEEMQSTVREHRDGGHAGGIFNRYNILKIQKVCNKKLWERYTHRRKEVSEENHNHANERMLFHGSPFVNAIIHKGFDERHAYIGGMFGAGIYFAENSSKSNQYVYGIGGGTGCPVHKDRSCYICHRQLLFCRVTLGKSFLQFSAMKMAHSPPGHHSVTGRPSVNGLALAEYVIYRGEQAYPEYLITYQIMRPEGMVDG
Description: Inhibition of human TNKS2 (956 to 1161 and 873 to 1161) using 500 nM NAD substrate after 20 mins incubation by fluorescence assay

Assay [4] concerns the target Poly [ADP-ribose] polymerase 1 (Homo sapiens, UniProt P09874). Nature of the assay: Inhibition of full-length human ARTD1 using 500 nM NAD substrate after 1 hr incubation.

Results on 2 molecules are retold here after ChEMBL document CHEMBL3593161, “Discovery of potent and selective nonplanar tankyrase inhibiting nicotinamide mimics” (Bioorg Med Chem, 2015).

Values joined by “and” are separate entries in the source; they are usually repeats but may differ in a detail not shown here. Equal entries are not always repeated. Bounds are passed on as bounds.

Poly [ADP-ribose] polymerase 1, sequence (P09874 whole entry): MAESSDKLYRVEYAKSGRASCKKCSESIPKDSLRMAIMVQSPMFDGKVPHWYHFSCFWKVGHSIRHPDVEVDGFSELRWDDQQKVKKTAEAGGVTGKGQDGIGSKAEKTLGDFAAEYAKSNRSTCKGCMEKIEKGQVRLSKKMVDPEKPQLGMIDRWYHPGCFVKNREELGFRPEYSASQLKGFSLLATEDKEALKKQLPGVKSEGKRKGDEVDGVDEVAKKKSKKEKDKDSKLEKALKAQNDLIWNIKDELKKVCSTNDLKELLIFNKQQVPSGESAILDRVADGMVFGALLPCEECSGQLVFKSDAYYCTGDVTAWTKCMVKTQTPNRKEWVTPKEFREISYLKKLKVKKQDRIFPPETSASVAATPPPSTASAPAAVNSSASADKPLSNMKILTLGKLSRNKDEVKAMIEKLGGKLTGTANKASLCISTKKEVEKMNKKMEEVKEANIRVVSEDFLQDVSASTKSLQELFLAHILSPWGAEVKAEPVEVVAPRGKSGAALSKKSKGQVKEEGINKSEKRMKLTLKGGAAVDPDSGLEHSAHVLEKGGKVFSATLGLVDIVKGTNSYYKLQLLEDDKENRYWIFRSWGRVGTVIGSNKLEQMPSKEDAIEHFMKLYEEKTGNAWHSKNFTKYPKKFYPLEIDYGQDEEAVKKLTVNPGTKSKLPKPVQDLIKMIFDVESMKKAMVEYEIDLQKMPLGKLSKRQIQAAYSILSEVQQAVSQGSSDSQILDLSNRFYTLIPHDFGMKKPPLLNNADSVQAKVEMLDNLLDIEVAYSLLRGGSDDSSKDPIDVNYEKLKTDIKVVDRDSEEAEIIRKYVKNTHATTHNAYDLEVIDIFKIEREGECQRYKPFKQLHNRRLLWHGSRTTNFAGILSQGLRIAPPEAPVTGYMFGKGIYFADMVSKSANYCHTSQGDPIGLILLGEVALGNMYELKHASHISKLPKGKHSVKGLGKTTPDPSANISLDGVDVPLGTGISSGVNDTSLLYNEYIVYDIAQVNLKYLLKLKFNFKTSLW

Regarding `CC(C)c1ccc(C2NC(=O)c3ccccc3N2)cc1` (stereo not drawn), the IC50 in assay [1] was more than 10000 nM; in assay [2], more than 100000 nM; in assay [3], 230 nM and 234 nM; in assay [4], more than 100000 nM.

Take `CC(C)(C)c1ccc(C2NC(=O)c3ccccc3N2)cc1` (stereo not drawn): the IC50 in assay [1] was more than 10000 nM; in assay [2] it was more than 100000 nM; in assay [3], 150 nM and 155 nM; in assay [4] it was more than 100000 nM.
